{"source": "patent US9968620B2", "about": "“Methods of treating lymphoma using thienotriazolodiazepine compounds” (ONCOETHIX GmbH, priority 2014, dated 2018)", "key": {"[1]": {"assay": "Oral exposure in the rat (pharmacokinetics)", "format": "in vivo, Sprague Dawley rats", "conditions": "rats, 1 mg/kg intravenous"}, "[2]": {"assay": "Antiproliferative activity by MTT", "format": "cell-based", "conditions": "B-cell", "description": "(§1) Cell lines: 22 diffuse large B-cell lymphoma (DLBCL), 4 mantle cell lymphomas, 3 multiple myelomas, 3 splenic marginal zone lymphoma and 1 prolymphocytic leukemia. […]. Data mining was done with LIMMA, GSEA, Metacore. Synergy was assessed in cells (2-5 cell lines) exposed for 72 h to increasing doses of compound (1-1) alone or in combination with increasing doses of other agents. MTT assays were performed and Chou-Talalay combination index (CI) calculated."}, "[3]": {"tested_on": "22 diffuse large B-cell lymphoma (DLBCL), 4 mantle cell lymphomas, 3 multiple myelomas, 3 splenic marginal zone lymphoma and 1 prolymphocytic leukemia cell …", "assay": "Antiproliferative activity by MTT", "format": "cell-based", "conditions": "500 nM, 72 h; 88%", "description": "as §1"}, "lymphoma cell lines": {"tested_on": "lymphoma cell lines", "assay": "Cytotoxic activity (apoptosis) by Annexin V staining", "format": "cell-based", "conditions": "500 nM, 72 h; 14%"}, "[4]": {"tested_on": "SU-DHL-6, SU-DHL-2 cell lines", "assay": "Gene expression profiling (GEP), Illumina HumanHT-12", "format": "cell-based, human", "conditions": "500 nM, 1, 2, 4, 8 or 12 hours", "description": "Cell lines: 22 diffuse large B-cell lymphoma (DLBCL), 4 mantle cell lymphomas, 3 multiple myelomas, 3 splenic marginal zone lymphoma and 1 prolymphocytic leukemia. Antiproliferative activity of compound (1-1) (OncoEthix SA, Switzerland) was assessed by MTT and its cytotoxic activity by Annexin V staining and gene expression profiling (GEP) with Illumina HumanHT-12 Expression BeadChips. Data mining was done with LIMMA, GSEA, Metacore. Synergy was assessed in cells (2-5 cell lines) exposed for 72 h to increasing doses of compound (1-1) alone or in combination with increasing doses of other agents. MTT assays were performed and Chou-Talalay combination index (CI) calculated.\nWe performed GEP on 2 cell lines (SU-DHL-6, SU-DHL-2), treated with DMSO or compound (1-1) (500 nM) for 1, 2, 4, 8 or 12 hours."}, "[5]": {"tested_on": "NFKB target genes (IRF4, TNF AIP3 and BIRC3)", "assay": "PCR of NFKB target genes", "format": "cell-based"}, "ABC cell lines": {"tested_on": "ABC cell lines", "assay": "Immunoblotting and immunohistochemistry", "format": "cell-based"}, "IL10 and IL4 production": {"tested_on": "IL10 and IL4 production", "assay": "IL10 and IL4 production", "format": "cell-based", "conditions": "after 24 hours treatment"}, "[6]": {"tested_on": "DOHH2 and SU-DHL-2 DLBCL cell lines", "assay": "miRNA profiling, Agilent Human microRNA microarray", "format": "cell-based", "conditions": "500 nM vs DMSO, 4 h or 8 h", "description": "(§2) Total RNA was extracted from 2 DLBCL cell lines, the germinal center B-cell (GCB) type DOHH2 and from the activated B-cell-like (ABC)-type SU-DHL-2, following treatment with compound (1-1) (500 nM) or DMSO for 4 h or 8 h. RNA samples were labeled with cyanine-3 dye using the Agilent microRNA Complete Labeling System & Hyb Kit and hybridized to the Agilent Human microRNA microarray v.3. Raw expression values were obtained with Agilent Feature Extraction Software, log-transformed and normalized by the quantile method. Data were filtered to exclude relatively invariant features and those below the detection threshold. Limma (Linear Models for Microarray data analysis) was employed using R/Bioconductor and the filtered dataset. Baseline miRNA profiling was obtained in 22 DLBCL cell lines with the Nanostring nCounter Human v2 miRNA Expression Assay kit. Baseline gene expression profiling (GEP) was obtained in the 22 cell lines with the Illumina HumanHT-12 v4 Expression BeadChip. Selected miRNA changes were validated by real-time PCR. The miRWalk database (Dweep et al, 2011) was used to retrieve the validated miRNA targets. Gene Set Enrichment Analysis (GSEA) software was used to assess enrichment of miRNA targets in the GEP datasets.\nTotal RNA was extracted from 2 diffuse large B-Cell lymphoma (DLBCL) cell lines, the germinal center B-cell (GCB) type DOHH2 and activated B-cell-like (ABC)-type SU-DHL-2, following treatment with 500 nM compound (1-1) or DMSO for 4 h or 8 h. RNA samples were labeled with cyanine-3 dye using the Agilent microRNA Complete Labeling System & Hyb Kit and hybridized to the Agilent Human microRNA microarray v.3. Raw expression values were obtained with Agilent Feature Extraction Software, log-transformed and normalized by the quantile method. Data were filtered to exclude relatively invariant features and those below the detection threshold. Limma was employed using R/Bioconductor and the filtered dataset. […]"}, "DLBCL cell lines": {"tested_on": "DLBCL cell lines", "assay": "GEP variations of validated miRNA target genes", "format": "cell-based, human", "description": "as §2\nTotal RNA was extracted from 2 diffuse large B-Cell lymphoma (DLBCL) cell lines, the germinal center B-cell (GCB) type DOHH2 and activated B-cell-like (ABC)-type SU-DHL-2, following treatment with 500 nM compound (1-1) or DMSO for 4 h or 8 h. RNA samples were labeled with cyanine-3 dye using the Agilent microRNA Complete Labeling System & Hyb Kit and hybridized to the Agilent Human microRNA microarray v.3. Raw expression values were obtained with Agilent Feature Extraction Software, log-transformed and normalized by the quantile method. Data were filtered to exclude relatively invariant features and those below the detection threshold. Limma was employed using R/Bioconductor and the filtered dataset. Baseline microRNA (abbreviated miRNA) profiling was obtained from 30 B-cell lymphoma cell lines, including 22 DLBCL with the Nanostring nCounter Human v2 miRNA Expression Assay kit. Baseline gene expression profiling (GEP) was obtained with the Illumina HumanHT-12 v4 Expression BeadChip. Selected miRNA changes were validated by real-time PCR. Validated miRNA targets were retrieved using the miRWalk database (Dweep et al, 2011). […] Changes in these miRNAs matched GEP variations of validated target genes (e.g., miR-92a-1-5p: CDKN1A, log 2 FC, 0.81, CDKN2A, log 2 FC, 0.81; miR-96-5p: MYC, log 2 FC, −0.57, MYD88, log 2 FC, −0.35)."}}}
{"smiles": "Cc1sc2c(c1C)C(c1ccc(Cl)cc1)=N[C@@H](CC(=O)Nc1ccc(O)cc1)c1nnc(C)n1-2", "note": "[Compound (1-1), 2-[(6S)-4-(4-chlorophenyl)-2,3,9-trimethyl-6H-thienol[3,2-f]-[1,2,4]triazolo[4,3-a][1,4]diazepin-6-yl]-N-(4-hydroxyphenyl)acetamide dihydrate]", "values": [{"measurement": "CI/F", "setting": "[1]", "result": 13.4, "unit": "mL/min/kg"}, {"measurement": "IC50", "setting": "[2]; cell lines with lower sensitivity (8 of 22 DLBCL cell lines)", "result": "> 0.5", "unit": "µM"}, {"measurement": "IC50", "setting": "[2]; sensitive cell lines (14 of 22 DLBCL cell lines)", "result": "< 0.5", "unit": "µM"}, {"measurement": "cell lines showing cytostatic activity", "setting": "[3]", "result": "29/33"}, {"measurement": "cell lines showing apoptosis", "setting": "lymphoma cell lines", "result": "3/22"}, {"measurement": "expression of MYC (GEP)", "setting": "[4]", "result": "most frequently downregulated gene"}, {"measurement": "expression of MYD88, IRAK1, TLR6, IL6, STAT3, and TNFRSF17 (NFKB, TLR and JAK/STAT pathways)", "setting": "[4]", "result": "downregulated"}, {"measurement": "expression of histone genes (GEP)", "setting": "[4]", "result": "upregulated"}, {"measurement": "expression of NFKB target genes (IRF4, TNF AIP3 and BIRC3)", "setting": "[5]", "result": "downregulated"}, {"measurement": "transcriptionally active pSTAT3", "setting": "ABC cell lines; 2 ABC cell lines", "result": "reduction"}, {"measurement": "nuclear localization of p50 (NFKB 1)", "setting": "ABC cell lines; ABC cell lines", "result": "reduction"}, {"measurement": "IL10 and IL4 production", "setting": "IL10 and IL4 production", "result": "reduced"}, {"measurement": "miR-21-3p expression, log 2 FC", "setting": "[6]", "result": "−0.37", "unit": "log 2 FC"}, {"measurement": "miR-92a-1-5p expression, log 2 FC", "setting": "[6]", "result": "−2.01", "unit": "log 2 FC"}, {"measurement": "miR-96-5p expression, log 2 FC", "setting": "[6]", "result": 0.39, "unit": "log 2 FC"}, {"measurement": "CDKN1A expression (miR-92a-1-5p target), log 2 FC", "setting": "DLBCL cell lines", "result": 0.81, "unit": "log 2 FC"}, {"measurement": "CDKN2A expression (miR-92a-1-5p target), log 2 FC", "setting": "DLBCL cell lines", "result": 0.81, "unit": "log 2 FC"}, {"measurement": "MYC expression (miR-96-5p target), log 2 FC", "setting": "DLBCL cell lines", "result": "−0.57", "unit": "log 2 FC"}, {"measurement": "MYD88 expression (miR-96-5p target), log 2 FC", "setting": "DLBCL cell lines", "result": "−0.35", "unit": "log 2 FC"}]}
